Each structure is given as a SMILES string. In brackets after ≈: the same amount, converted by molar mass.

Here are results for 27 compounds from ChEMBL document CHEMBL5532635, “The role of natural anti-parasitic guided development of synthetic drugs for leishmaniasis” (Eur J Med Chem, 2023).

Holding throughout (format): functional, organism-based
Assay [1] has as its system Leishmania major. The experiment in a line: Antileishmanial activity against Leishmania major promastigotes assessed as reduction in parasite growth incubated for 72 hrs by MTT assay. A general note: Tetrazolium dyes change colour on reduction, which living cells bring about.
The test system of assay [2] is Leishmania major. The experiment in a line: Antileishmanial activity against Leishmania major amastigotes assessed as reduction in parasite growth incubated for 72 hrs by MTT assay.
In assay [3] the test system is Leishmania amazonensis. The experiment in a line: Antileishmanial activity against Leishmania amazonensis promastigotes infected in BALB/c mouse assessed as reduction of IgG1 level at 400 mg/kg per day, ip administered for 30 days measured at 10 week by ELISA assay. On the technique in general: ELISA stands for enzyme-linked immunosorbent assay.
The test system of assay [4] is Leishmania donovani. The experiment in a line: Antileishmanial activity against Leishmania donovani promastigotes assessed as reduction in parasite growth.
Assay [5] relates to Leishmania amazonensis. Kind of assay: Antileishmanial activity against Leishmania amazonensis amastigotes assessed as reduction in parasite growth.
Assay [6] concerns Leishmania amazonensis. Kind of assay: Antileishmanial activity against Leishmania amazonensis promastigotes assessed as reduction in parasite viability after 72 hrs by CCK-8 assay.
Assay [7] deals with Leishmania infantum. The experiment in a line: Antileishmanial activity Leishmania infantum promastigotes assessed as reduction in parasite growth incubated for 72 hrs by alamar blue assay.
Assay [8] deals with Leishmania infantum. Kind of assay: Antileishmanial activity against Leishmania infantum assessed as reduction in parasite growth.
Assay [9] has as its system Leishmania infantum. The experiment in a line: Antileishmanial activity against Leishmania infantum promastigotes assessed as reduction in parasite viability measured after 48 hrs by MTT assay.
Assay [10] has as its system Leishmania donovani. Kind of assay: Antileishmanial activity against Leishmania donovani promastigotes assessed as inhibition of parasite growth incubated for 4 hrs by MTT assay.

By IC50 is commonly meant the concentration that gives 50% inhibition. As for `COc1c2c(cc3c1-c1ccc(OC)c(=O)cc1[C@@H](NC(C)=O)CC3)OCO2`, the IC50 with Leishmania major [1] worked out at 0.4 µg/mL (≈ 1.04 µM); in the assay with Leishmania major [2], 8.7 µg/mL (≈ 22.7 µM).
Consider `CC[C@H]1CN2CCc3c([nH]c4ccccc34)[C@@H]2C[C@@H]1/C(=C\OC)C(=O)OC`, for which the IC50 in the assay with Leishmania amazonensis [3] was 1.65 µM.
The same measure, in the same setting: to `C=C[C@H]1CN2CCc3c([nH]c4ccccc34)[C@@H]2C[C@@H]1/C(=C\OC)C(=O)OC` belongs 1.12 µM.
Take `CO[C@@H]1C(=O)C[C@H]2O[C@]1(C)n1c3ccccc3c3c4c(c5c6ccccc6n2c5c31)C(=O)NC4`: the IC50 is > 0.089 µM with Leishmania donovani [4], 0.005 µM in the assay on Leishmania amazonensis [5] and 0.037 µM in the assay on Leishmania amazonensis [6].
In general, EC50 refers to the concentration that produces a half-maximal response. Consider `C/C(=C\COc1cc(O)cc2oc(=O)ccc12)C/C=C/C(C)(C)OO`, for which the EC50 in the assay with Leishmania infantum [7] was 20.2 µM.
Turning to `Cc1cc(O)c(C(=O)Nc2ccccc2)c(=O)n1Cc1ccc(Cl)cc1`, the IC50 in the assay with Leishmania infantum [8] is 55 µM.
Consider `Cc1cc(O)c(C(=O)Nc2ccccc2)c(=O)n1Cc1ccc(F)cc1`, for which the IC50 in the assay with Leishmania infantum [8] came out at 55 µM.
The same measure, in the same setting: to `CCCn1c(C)cc(O)c(C(=O)Nc2ccc(Br)cc2)c1=O` belongs 55 µM.
On to `COc1c(O[C@@H]2O[C@H](CO)[C@@H](O)[C@H](O)[C@H]2O)cc2c(c1OC)-c1ccc(OC)c(=O)cc1[C@@H](NC(C)=O)CC2`, for which the IC50 in the assay on Leishmania major [1] came out at 0.2 µg/mL (≈ 0.365 µM); in the assay on Leishmania major [2], 4 µg/mL (≈ 7.31 µM).
On to `Cc1cc(O)c(C(=O)Nc2ccc(Br)cc2)c(=O)n1C1CC1`, for which the IC50 in the assay on Leishmania infantum [8] is 55 µM.
Regarding `Cc1cc(O)c(C(=O)Nc2ccccc2)c(=O)n1Cc1cccc(Cl)c1Cl`, in the assay on Leishmania infantum [8], the IC50 was 55 µM.
For `COC1=C(C)O[C@H]2C[C@@]1(OC)n1c3ccccc3c3c4c(c5c6ccccc6n2c5c31)C(=O)NC4`, the IC50 in the assay with Leishmania donovani [4] is > 0.089 µM; in the assay on Leishmania amazonensis [6] it was 0.0224 µM.
Take `CCOC(=O)c1cc2c([nH]c3ccccc32)c(-c2ccccn2)n1`: in the assay on Leishmania infantum [9], the EC50 came out at 3.36 µM.
On the same count and under the same terms, to `CCOC(=O)c1cc2c([nH]c3ccccc32)c(-c2cn(-c3ccccc3)nn2)n1` belongs 13.6 µM.
For `COc1cc2oc(=O)ccc2c(OC/C=C(\C)C/C=C/C(C)(C)OO)c1OC`, the EC50 in the assay with Leishmania infantum [7] turned out to be 26.2 µM.
With `CCOC(=O)c1cc2c([nH]c3ccccc32)c(-c2cc3ccccc3n3nnnc23)n1`, in the assay on Leishmania infantum [9], the 50% effective concentration (EC50) turned out to be 10.2 µM.
For `O=c1c2ccccc2nc(/C=C/c2ccc([N+](=O)[O-])cc2)n1-c1ccccc1`, the IC50 in the assay with Leishmania donovani [10] was 0.021 µM.
`COc1ccc(Cn2c(C)cc(O)c(C(=O)Nc3ccc(C)cc3)c2=O)cc1`: the 50% inhibitory concentration (IC50) in the assay with Leishmania infantum [8] was determined as 55 µM.
For `COc1cc2c(c(OC)c1OC)-c1ccc(OC)c(=O)cc1[C@@H](NC=O)CC2`, the IC50 with Leishmania major [2] is 10.2 µg/mL (≈ 26.5 µM).
Consider `COc1cc2c(c(OC)c1O)-c1ccc(OC)c(=O)cc1[C@@H](NC(C)=O)CC2` [2-DESMETHYLCOLCHICIN], for which the IC50 with Leishmania major [1] came out at 0.5 µg/mL (≈ 1.3 µM); in the assay with Leishmania major [2], 10.2 µg/mL (≈ 26.5 µM).
As for `C[C@@H]1[C@H](O)[C@@H](C)/C=C/C=C/C=C/C=C/C=C/C=C/C=C/[C@H](O[C@@H]2O[C@H](C)[C@@H](O)[C@H](N)[C@@H]2O)C[C@@H]2O[C@](O)(C[C@@H](O)C[C@@H](O)[C@H](O)CC[C@@H](O)C[C@@H](O)CC(=O)O[C@H]1C)C[C@H](O)[C@H]2C(=O)O` [AMPHOTERICIN B], the IC50 in the assay on Leishmania donovani [10] turned out to be 0.046 µM.
As to `COc1cc2c(c(OC)c1OC)-c1ccc(OC)c(=O)cc1[C@@H](NC(C)=O)CC2` [COLCHICINE], the IC50 was found to be 0.5 µg/mL (≈ 1.25 µM) in the assay on Leishmania major [1] and 10.2 µg/mL (≈ 25.5 µM) in the assay with Leishmania major [2].
For `COc1cc2c(c(OC)c1OC)-c1ccc(OC)c(=O)cc1[C@@H](NC(=O)CO)CC2` [COLCHIFOLINE] the same measures were 0.7 µg/mL (≈ 1.68 µM) and 14 µg/mL (≈ 33.7 µM).
On to `CC[C@@H]1CN2CCc3c([nH]c4ccccc34)[C@@H]2C[C@@H]1/C(=C\OC)C(=O)OC` [CORYNANRHEIDINE], for which, in the assay on Leishmania amazonensis [3], the 50% inhibitory concentration (IC50) was 2.81 µM.
On to `CN[C@H]1CCc2cc(OC)c(OC)c(OC)c2-c2ccc(OC)c(=O)cc21` [DEMECOLCINE], for which the IC50 stood at 0.7 µg/mL (≈ 1.88 µM) with Leishmania major [1] and 14.8 µg/mL (≈ 39.8 µM) in the assay on Leishmania major [2].
Turning to `CCCCCCCCCCCCCCCCOP(=O)([O-])OCC[N+](C)(C)C` [MILTEFOSINE], the IC50 in the assay on Leishmania donovani [10] was determined as 3.19 µM.
As for `COc1cc2ccc(=O)oc2cc1OC` [SCOPARONE], the EC50 in the assay with Leishmania infantum [7] is 5.2 µM.
